Key:
[1] = biological target: T1, histamine-1 receptors on Hela-S3 cells (Homo sapiens, UniProt P35367); experiment: Inhibition of [^3 H]-Pyrilamine Binding to Histamine-1 Receptors on Hela-S3 Cells; conditions: 0.5 h; 1 μM test compound; [^3 H]-pyrilamine remaining specifically bound; 37° C., 30 minutes; read-out: % Specific Binding at 1 μM
T1 construct: histamine-1 receptors on Hela-S3 cells (American Type Culture Collection); host or cells: HeLa-S3 cells (intact cell suspension)
Experimental: Inhibition of [^3 H]-Pyrilamine Binding to Histamine-1 Receptors on Hela-S3 Cells
The inhibition of [^3 H]-pyrilamine binding to histamine-1 receptors on Hela-S3 cells (American Type Culture Collection) was determined by isotopic labelling and filtration techniques. A suspension of the cells in buffer (25 ml, 0.5% Bovine Serum Albumin, 0.1% sodium azide, phosphate buffered saline (PBS)) was centrifuged at 1000 rpm for 5 minutes in a JOUAN CR 422 centrifuge, collected, resuspended in buffer (25 ml) and spun again. The cells were counted using a haemocytometer and resuspended in buffer to provide a final concentration of 4.5×10^6 cells ml^-1. A portion of the Hela-S3 cell suspension (1 ml) was added to each assay tube containing 25 μl of vehicle (50% DMSO/buffer) or 25 μl of test compound solution (dissolved in DMSO and diluted with sufficient PBS to give a final test concentration of 1 μM) and 25 μl of [^3 H]-pyrilamine (supplied by Amersham International and diluted with PBS to 3 nM). The tubes were mixed, incubated at 37° C. for 30 minutes and then spun at 4° C. at 2000 rpm for 2 minutes. The supernatant was removed and the cells resuspended in buffer (repeated ×2). The cells were suspended in 300 μl of a 2:1 solution of 1M sodium hydroxide and 1% sodium dodecyl sulphate. The tubes were left ovemight before the contents were tranferred to a scintillation vial, treated with 10 ml, OPTIPHASE MP scintillation fluid (OPTIPHASE MP is a trade mark) and the radioactivity counted in a scintillation counter. Non-displacable binding (NDB) was determined using Astemizole (5×10^-5 M) in place of test compounds. Defining the counts for total binding from the vehicle control sample as "TB" and the counts for total binding with antogonist as "TBA" the percentage specific binding (% SB) can be determined from the following equation.

[2] = test system: PAF-Induced Platelet Aggregation; experiment: Inhibition of PAF-Induced Platelet Aggregation; assay type: cell-based, rabbit (New Zealand White); conditions: Oryctolagus cuniculus; rabbit platelet-rich plasma, PAF 100 ngml^-1
Experimental: Inhibition of PAF-Induced Platelet Aggregation
Male New Zealand White rabbits (3.0-3.5 kg) were anaesthetised by intravenous administration of sodium pentobarbitone, 18 mg.ml^-1, via a marginal ear vein. The trachea was exposed and connected to a respiratory pump (Harvard UK) to provide artificial ventilation. A carotid artery was exposed and cannulated and the animal was exsanguinated. Whole blood was collected in a syringe containing tri-sodium citrate (3.8% w/v) to a ratio of 1 part citrate:9 parts blood.
Collected blood was centrifuged at 180×g for 15 minutes at room temperature (21° C.) to prepare platelet-rich plasma (PRP). The remaining blood was then centrifuged at 1800×g for 10 minutes at room temperature to obtain platelet poor plasma (PPP).
Platelet count of the PRP was measured using a Technicon H1 blood cell differential analyser (Bayer Diagnostics UK) and adjusted with PPP to obtain a final platelet count of 500,000 platelets per μl of plasma, this being the normal physiological platelet count for rabbits. Corrected PRP was left to equilibrate at room temperature for 30 minutes before use.
Aggregation studies were carried out using a 4-channel aggregometer (PAP-4C, BioData USA) as follows: 400 μl aliquots of PRP were placed in siliconised cuvettes and incubated to 37° C. for 1 to 2 minutes in the heating block of the aggregometer. Baseline (100% aggregation) was set up using PPP (500 μl in a siliconised cuvette). The PRP was placed into a measuring well of the aggregometer, and a stirrer bar was added. The sample was stirred at 1000 rpm. The machine was activated to set the 0% aggregation level. Test compound or vehicle (50 μl) was added to the PRP, where any effects on the baseline was noted. PAF (100 ngml^-1 as 50 μl aliqout) was added to the PRP 3 minutes after test compound or vehicle. Aggregation was measured for a further 4 minutes after PAF addition and the maximum aggregation over the 4 minutes was recorded.
The investigation of different concentrations of test compound was performed in triplicate. Data were expressed as […] of the sample and test compound data were compared to vehicle data to obtain % inhibition of the PAF-induced aggregation from which IC50 values could be determined.
PAF was made up in sterile saline (NaCl 0.9% w/v) containing BSA (0.25% w/v) from an initial stock solution (10 mgml^-1 in EtOH). Test compounds were made up as 1×10^-3 M stock solutions in sterile saline containing molar equivalents of 1N HCl (v/v) or in DMSO.
In the results which follow, a comparison compound A was included. Compound A was prepared as described in EP-A-260613 (G. D. Searle), but is not part of the present invention. As appears from the results of the comparison, compounds of this invention, all of which incorporate a fragment capable of H1 antagonist activity, are observed to show improved PAF antagonist activity over compound A.

T1 sequence (P35367 whole entry): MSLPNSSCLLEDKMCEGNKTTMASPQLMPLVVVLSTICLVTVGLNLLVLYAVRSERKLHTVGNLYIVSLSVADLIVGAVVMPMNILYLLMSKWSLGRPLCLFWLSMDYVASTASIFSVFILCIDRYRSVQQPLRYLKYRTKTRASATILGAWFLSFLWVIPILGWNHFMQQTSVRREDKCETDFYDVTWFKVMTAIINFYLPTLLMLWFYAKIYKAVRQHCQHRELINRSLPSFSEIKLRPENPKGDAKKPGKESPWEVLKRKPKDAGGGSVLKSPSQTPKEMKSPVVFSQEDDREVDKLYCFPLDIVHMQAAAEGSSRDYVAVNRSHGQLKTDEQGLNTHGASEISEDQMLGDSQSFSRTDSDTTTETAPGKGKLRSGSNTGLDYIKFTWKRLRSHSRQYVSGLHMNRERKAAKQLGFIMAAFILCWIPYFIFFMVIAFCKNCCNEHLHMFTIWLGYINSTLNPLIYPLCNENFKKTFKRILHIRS

Compound	activity at 1 µM [1]	IC50 [2]
CCC(C)N(C/C=C/c1cccc(/C(=C/CN2CCCC2)c2ccc(C)cc2)n1)C(=O)c1ccc(Cn2c(C)nc3cnccc32)cc1 (racemic) [Example 9, N-(R,S) sec-Butyl-4-(1H-2-methylimidazo[4,5-c]pyridin-1-ylmethyl)-N-(E)-{3-[6-(3-pyrrolidin-1-yl-1-{4-tolyl}-prop-1E-enyl)-pyridin-2-yl]-prop-2-enyl}-benzamide]	63%	43 nM
CN(C(=O)c1ccc(Cn2cnc3cnccc32)cc1)C1CCCCC1 [Compound A, reference compound]	–	74000 nM
Cc1ccc(/C(=C\CN2CCCC2)c2cccc(/C=C/COC(=O)c3ccc(Cn4c(C)nc5cnccc54)cc3)n2)cc1 [Example 1, 4-(1H-2-Methylimidazo[4,5-c]pyridin-1-ylmethyl)benzoic acid 3-[6-(3-pyrrolidin-1-yl-1-{4-tolyl}-prop-1E-enyl)-pyridin-2-yl]prop-2E-enyl ester]	16%	2100 nM
Cc1ccc(/C(=C\CN2CCCC2)c2cccc(CCCOC(=O)c3ccc(Cn4c(C)nc5cnccc54)cc3)n2)cc1 [Example 2, 4-(1H-2-Methylimidazo[4,5-c]pyridin-1-ylmethyl)benzoic acid 3-[6-(3-pyrrolidin-1-yl-1-{4-tolyl}-prop-1E-enyl)-pyridin-2-yl]propyl ester]	15%	542 nM
Cc1ccc(/C(=C\CN2CCCC2)c2cccc(/C=C/CNC(=O)c3ccc(Cn4c(C)nc5cnccc54)cc3)n2)cc1 [Example 5, 4-(1H-2-Methylimidazo[4,5-c]pyridin-1-ylmethyl)-N-{3-[6-(3-pyrrolidino-1-{4-tolyl}-prop-1E-enyl)-pyridin-2-yl]-prop-2E-enyl}-benzamide]	16%	2200 nM
Cc1ccc(/C(=C\CN2CCCC2)c2cccc(/C=C/CN(CCC(C)C)C(=O)c3ccc(Cn4c(C)nc5cnccc54)cc3)n2)cc1 [Example 6, N-(3-Methyl-but-1-yl)-4-(1H-2-methylimidazo[4,5-c]pyridin-1-ylmethyl)-N-{3-[6-(3-pyrrolidin-1-yl-1-{4-tolyl}-prop-1E-enyl)-pyridin-2-yl]-prop-2E-enyl}-benzamide]	29%	333 nM
Cc1ccc(/C(=C\CN2CCCC2)c2cccc(/C=C/CN(CC(C)C)C(=O)c3ccc(Cn4c(C)nc5cnccc54)cc3)n2)cc1 [Example 7, N-iso-Butyl-4-(1H-2-methylimidazo[4,5-c]pyridin-1-ylmethyl)-N-{3-[6-(3-pyrrolidin-1-yl-1-{4-tolyl}-prop-1E-enyl)-pyridin-2-yl]-prop-2E-enyl}-benzamide]	40%	133 nM
Cc1ccc(/C(=C\CN2CCCC2)c2cccc(/C=C/CN(C(=O)c3ccc(Cn4c(C)nc5cnccc54)cc3)C3CCCC3)n2)cc1 [Example 8, N-Cyclopentyl-4-(1H-2-methylimidazo[4,5-c]pyridin-1-ylmethyl)-N-{3-[6-(3-pyrrolidin-1-yl-1-{4-tolyl}-prop-1E-enyl)-pyridin-2-yl]-prop-2E-enyl}-benzamide]	34%	92 nM
Cc1ccc(/C(=C\CN2CCCC2)c2cccc(/C=C/CN(C(=O)c3ccc(Cn4c(C)nc5cnccc54)cc3)C(C)(C)C)n2)cc1 [Example 10, N-tert-Butyl-4-(1H-2-methylimidazo[4,5-c]pyridin-1-ylmethyl)-N-{3-[6-(3-pyrrolidin-1-yl-1-{4-tolyl}-prop-1E-enyl)-pyridin-2-yl]-prop-2E-enyl}-benzamide]	62%	2010 nM
Cc1ccc(/C(=C\CN2CCCC2)c2cccc(/C=C/CN(C(=O)c3ccc(Cn4c(C)nc5cnccc54)cc3)C3CC(C)CC(C)C3)n2)cc1 (centres unmarked) [Example 11, N-3,5-Dimethylcyclohexyl-4-(1H-2-methylimidazo[4,5-c]pyridin-1-ylmethyl)-N-{3-[6-(3-pyrrolidin-1-yl-1-{4-tolyl}-prop-1E-enyl)-pyridin-2-yl]-prop-2E-enyl)-benzamide]	60%	176 nM
Cc1ccc(/C(=C\CN2CCCC2)c2cccc(/C=C/CN(C(=O)c3ccc(Cn4c(C)nc5cnccc54)cc3)C(C)C)n2)cc1 [Example 12, N-iso-Propyl-4-(1H-2-methylimidazo[4,5-c]pyridin-1-ylmethyl)-N-{3-[6-(3-pyrrolidin-1-yl-1-{4-tolyl}-prop-1E-enyl)-pyridin-2-yl]-prop-2E-enyl)-benzamide]	64%	58 nM
Cc1ccc(/C(=C\CN2CCCC2)c2cccc(CCCN(C(=O)c3ccc(Cn4c(C)nc5cnccc54)cc3)C3CCCCC3)n2)cc1 [Example 17, N-Cyclohexyl-4-(1H-2-methylimidazo[4,5-c]pyridin-1-ylmethyl)-N-{3-[6-(3-pyrrolidin-1-yl-1-{4-tolyl}-prop-1E-enyl)-pyridin-2-yl]-propyl}-benzamide]	58%	315 nM
CCCCN(C/C=C/c1cccc(/C(=C/CN2CCCC2)c2ccc(C)cc2)n1)C(=O)c1ccc(Cn2c(C)nc3cnccc32)cc1 [Example 22, N-Butyl-4-(1H-2-methylimidazo[4,5-c]pyridin-1-ylmethyl)-N-{3-[6-(3-pyrrolidin-1-yl-1-{4-tolyl}-prop-1E-enyl)-pyridin-2-yl]-prop-2E-enyl}-benzamide]	31%	62 nM
Cc1ccc(/C(=C\CN2CCCC2)c2cccc(/C=C/CN(C)C(=O)c3ccc(-n4c(C)nc5cnccc54)cc3)n2)cc1 [Example 26, N-Methyl-4-(1H-2-methylimidazo[4,5-c]pyridin-1-yl)-N-{3-[6-(3-pyrrolidin-1-yl-1-{4-tolyl}-prop-1E-enyl)-pyridin-2-yl]-prop-2E-enyl}-benzamide]	26%	–

— patent US5866588A, “Imidazopyridine derivatives” (British Biotech Pharmaceuticals Ltd., priority 1995, dated 1999)
